From ChEMBL document CHEMBL3856260, “A synergistic antitumor effect of polyphyllin I and formosanin C on hepatocarcinoma cells” (Bioorg Med Chem Lett, 2016)
Activity calls are given as the source filed them. The rule behind the calls is not given here.

Tests used:
[1] = Cell cycle arrest in human HepG2 cells assessed as accumulation at G1 phase at 1 uM after 24 hrs by propidium iodide staining-based flow cytometry(reference value: 55.62%); type: functional
HepG2 [2] = test: Induction of chromatin compaction in human HepG2 cells at 1 uM after 24 hrs by Hoechst 33258 staining-based fluorescence microscopic analysis; type: functional, cell-based
HepG2 [3] = test: Induction of apoptosis in human HepG2 cells at 1 uM after 24 hrs by propidium iodide staining-based flow cytometry(reference value: 3.01%); type: functional
HepG2 [4] = test: Induction of cytochrome c release in human HepG2 cells by Western blot analysis; type: functional, cell-based
[5] = Cell cycle arrest in human HepG2 cells assessed as accumulation at G1 phase at 1 uM after 24 hrs by propidium iodide staining-based flow cytometry in presence of PPI (reference value: 55.62%); type: functional
[6] = Suppression of MMP9 expression in human HepG2 cells at 1 uM after 24 hrs by Western blot analysis in presence of polyphyllin I; type: functional, cell-based
[7] = Suppression of MMP9 expression in human HepG2 cells assessed as reduction in enzyme activity at 1 uM after 24 hrs by zymographic analysis in presence of polyphyllin I; type: functional, cell-based
[8] = Induction of apoptosis in human HepG2 cells assessed as upregulation of p53 mRNA level at 1 uM incubated for 24 hrs by RT-PCR analysis in presence of polyphyllin I; type: functional, cell-based
[9] = Cytotoxicity against human Bel7402 cells after 24 hrs by MTT assay; type: functional, cell-based; conditions: Bel-7402, 24 h
HepG2 [10] = test: Change in PCNA mRNA level in human HepG2 cells at 1 uM incubated for 24 hrs by RT-PCR analysis in presence of polyphyllin I relative to polyphyllin I alone treatment; type: functional, cell-based
HepG2 [11] = test: Decrease in cyclin E level in human HepG2 cells at 1 uM incubated for 24 hrs Western blot analysis in presence of polyphyllin I; type: functional, cell-based
[12] = Induction of apoptosis in human HepG2 cells assessed as upregulation of caspase3 level at 1 uM incubated for 24 hrs by Western blot analysis in presence of polyphyllin I; type: functional, cell-based
HepG2 [13] = test: Induction of nuclear fragmentation in human HepG2 cells at 0.5 uM after 24 hrs by Hoechst 33258 staining-based fluorescence microscopic analysis in presence of polyphyllin I; type: functional, cell-based
[14] = Cell cycle arrest in human HepG2 cells assessed as accumulation at S phase at 1 uM after 24 hrs by […] staining-based flow cytometry in presence of PPI (reference value: 42.33%); type: functional
HepG2 [15] = test: Increase in p21 level in human HepG2 cells at 1 uM incubated for 24 hrs by Western blot analysis in presence of polyphyllin I; type: functional, cell-based
[16] = Induction of apoptosis in human HepG2 cells assessed as upregulation of Bax level at 1 uM incubated for 24 hrs by Western blot analysis in presence of polyphyllin I; type: functional, cell-based
[17] = Induction of apoptosis in human HepG2 cells assessed as upregulation of p53 level at 1 uM incubated for 24 hrs by Western blot analysis in presence of polyphyllin I; type: functional, cell-based
HepG2 [18] = test: Induction of apoptosis in human HepG2 cells at 1 uM after 24 hrs by propidium iodide staining-based flow cytometry in presence of PPI (reference value: 3.01%); type: functional
[19] = Cytotoxicity against human Bel7402 cells assessed as combination index at ED30 using 1:1 compound to polyphyllin I incubated for 24 hrs by MTT assay; type: functional, Bel-7402
[20] = Cell cycle arrest in human HepG2 cells assessed as accumulation at G2 phase at 1 uM after 24 hrs by propidium iodide staining-based flow cytometry(reference value: 2.04%); type: functional
HepG2 [21] = test: Antimigratory activity in human HepG2 cells at 1 uM after 24 hrs by wound healing assay in presence of polyphyllin I; type: functional, cell-based
[22] = Cell cycle arrest in human HepG2 cells assessed as accumulation at S phase at 1 uM after 24 hrs by propidium iodide staining-based flow cytometry(reference value: 42.33%); type: functional
[23] = Cytotoxicity against human Bel7402 cells assessed as combination index at ED50 using 1:1 compound to polyphyllin I incubated for 24 hrs by MTT assay; type: functional, Bel-7402
HepG2 [24] = test: Induction mitochondrial membrane potential changes in human HepG2 cells at 1 uM after 24 hrs by rhodamine 123 staining-based flow cytometry in presence of polyphyllin I (reference value: 23.8+/-2.3%); type: functional
[25] = Cytotoxicity against human HepG2 cells after 24 hrs by MTT assay; type: functional, cell-based; conditions: HepG2, 24 h
HepG2 [26] = test: Induction of Bax translocation from cytosol to mitochondria in human HepG2 cells by Western blot analysis in presence of polyphyllin I; type: functional, cell-based
[27] = Cytotoxicity against human HepG2 cells assessed as combination index at ED90 using 1:1 compound to polyphyllin I incubated for 24 hrs by MTT assay; type: functional
[28] = Cytotoxicity against human HepG2 cells assessed as combination index at ED30 using 1:1 compound to polyphyllin I incubated for 24 hrs by MTT assay; type: functional
HepG2 [29] = test: Induction of chromatin compaction in human HepG2 cells at 0.5 uM after 24 hrs by Hoechst 33258 staining-based fluorescence microscopic analysis in presence of polyphyllin I; type: functional, cell-based
HepG2 [30] = test: Decrease in cyclin E mRNA level in human HepG2 cells at 1 uM incubated for 24 hrs by RT-PCR analysis in presence of polyphyllin I relative to formosanin C alone treatment; type: functional, cell-based
[31] = Cytotoxicity against human HepG2 cells assessed as combination index at ED75 using 1:1 compound to polyphyllin I incubated for 24 hrs by MTT assay; type: functional
[32] = Cell cycle arrest in human HepG2 cells assessed as accumulation at G2 phase at 1 uM after 24 hrs by propidium iodide staining-based flow cytometry in presence of PPI (reference value: 2.04%); type: functional
HepG2 [33] = test: Induction of Bax translocation from cytosol to mitochondria in human HepG2 cells by Western blot analysis; type: functional, cell-based
HepG2 [34] = test: Increase in p21 mRNA level in human HepG2 cells at 1 uM incubated for 24 hrs by RT-PCR analysis in presence of polyphyllin I relative to formosanin C alone treatment; type: functional, cell-based
[35] = Induction of apoptosis in human HepG2 cells assessed as upregulation of Bax mRNA level at 1 uM incubated for 24 hrs by RT-PCR analysis in presence of polyphyllin I; type: functional, cell-based
[36] = Cytotoxicity against human HepG2 cells assessed as combination index at ED50 using 1:1 compound to polyphyllin I incubated for 24 hrs by MTT assay; type: functional
HepG2 [37] = test: Change in PCNA mRNA level in human HepG2 cells at 1 uM incubated for 24 hrs by RT-PCR analysis in presence of polyphyllin I relative to formosanin C alone treatment; type: functional, cell-based
HepG2 [38] = test: Induction of apoptosis in human HepG2 cells assessed as downregulation of Bcl2 mRNA level at 1 uM incubated for 24 hrs by RT-PCR analysis in presence of polyphyllin I; type: functional, cell-based
HepG2 [39] = test: Induction of apoptosis in human HepG2 cells assessed as downregulation of NF-kappaB […] level at 1 uM incubated for 24 hrs by RT-PCR analysis in presence of polyphyllin I; type: functional, cell-based
HepG2 [40] = test: Induction mitochondrial membrane potential changes in human HepG2 cells at 1 uM after 24 hrs by rhodamine 123 staining-based flow cytometry (reference value: 23.8+/-2.3%); type: functional
HepG2 [41] = test: Decrease in CDK2 level in human HepG2 cells at 1 uM incubated for 24 hrs by Western blot analysis in presence of polyphyllin I; type: functional, cell-based
[42] = Induction of apoptosis in human HepG2 cells assessed as upregulation of caspase3 mRNA level at 1 uM incubated for 24 hrs by RT-PCR analysis in presence of polyphyllin I; type: functional, cell-based
HepG2 [43] = test: Decrease in CDK2 level in human HepG2 cells at 1 uM incubated for 24 hrs by Western blot analysis in presence of polyphyllin relative to relative to polyphyllin I alone treatment; type: functional, cell-based
HepG2 [44] = test: Induction of cytochrome c release in human HepG2 cells by Western blot analysis in presence of polyphyllin I; type: functional, cell-based
[45] = Cytotoxicity against human Bel7402 cells assessed as combination index at ED75 using 1:1 compound to polyphyllin I incubated for 24 hrs by MTT assay; type: functional, Bel-7402
HepG2 [46] = test: Induction of nuclear fragmentation in human HepG2 cells at 1 uM after 24 hrs by Hoechst 33258 staining-based fluorescence microscopic analysis; type: functional, cell-based
[47] = Cytotoxicity against human Bel7402 cells assessed as combination index at ED90 using 1:1 compound to polyphyllin I incubated for 24 hrs by MTT assay; type: functional, Bel-7402

## C[C@@H]1CC[C@@]2(OC1)O[C@H]1C[C@H]3[C@@H]4CC=C5C[C@@H](O[C@@H]6O[C@H](CO)[C@@H](O[C@@H]7O[C@@H](C)[C@H](O[C@@H]8O[C@@H](C)[C@H](O)[C@@H](O)[C@H]8O)[C@@H](O)[C@H]7O)[C@H](O)[C@H]6O[C@@H]6O[C@@H](C)[C@H](O)[C@@H](O)[C@H]6O)CC[C@]5(C)[C@H]4CC[C@]3(C)[C@H]1[C@@H]2C [PENNOGENIN RAHAMNOSYL CHACOTRIOSIDE]
[1]
  Activity: 60.9%
HepG2 [2]
  Activity: Active
HepG2 [3]
  Activity: 6.96%
HepG2 [4]
  Activity: Active
[5]
  Activity: 68.7%
[6]
  Activity: Active
[7]
  Activity: Active
[8]
  Activity: Active
[9]
  IC50: 4.36 µM
HepG2 [10]
  Activity: Active
HepG2 [11]
  Activity: Active
[12]
  Activity: Active
HepG2 [13]
  Activity: Active
[14]
  Activity: 28.7%
HepG2 [15]
  Activity: Active
[16]
  Activity: Active
[17]
  Activity: Active
HepG2 [18]
  Activity: 7.52%
[19]
  CI: 0.67
[20]
  Activity: 2.74%
HepG2 [21]
  Activity: Active
[22]
  Activity: 36.4%
[23]
  CI: 0.58
HepG2 [24]
  Activity: 40.6%
[25]
  IC50: 3.76 µM
HepG2 [26]
  Activity: Active
[27]
  CI: 0.54
[28]
  CI: 0.62
HepG2 [29]
  Activity: Active
HepG2 [30]
  Activity: Active
[31]
  CI: 0.56
[32]
  Activity: 2.63%
HepG2 [33]
  Activity: Active
HepG2 [34]
  Activity: Active
[35]
  Activity: Active
[36]
  CI: 0.58
HepG2 [37]
  Activity: Active
HepG2 [38]
  Activity: Active
HepG2 [39]
  Activity: Active
HepG2 [40]
  Activity: 32.6%
HepG2 [41]
  Activity: Active
[42]
  Activity: Active
HepG2 [43]
  Activity: Active
HepG2 [44]
  Activity: Active
[45]
  CI: 0.52
HepG2 [46]
  Activity: Active
[47]
  CI: 0.46
